This passage reports Ki results from ChEMBL document CHEMBL1136386, “Solid-phase synthesis of endothelin receptor antagonists” (Bioorg Med Chem Lett, 2003).

Each structure is given as a SMILES string.

The target in one experiment is T1, Endothelin-1 receptor (Homo sapiens, UniProt P25101).
T1 sequence (P25101 whole entry): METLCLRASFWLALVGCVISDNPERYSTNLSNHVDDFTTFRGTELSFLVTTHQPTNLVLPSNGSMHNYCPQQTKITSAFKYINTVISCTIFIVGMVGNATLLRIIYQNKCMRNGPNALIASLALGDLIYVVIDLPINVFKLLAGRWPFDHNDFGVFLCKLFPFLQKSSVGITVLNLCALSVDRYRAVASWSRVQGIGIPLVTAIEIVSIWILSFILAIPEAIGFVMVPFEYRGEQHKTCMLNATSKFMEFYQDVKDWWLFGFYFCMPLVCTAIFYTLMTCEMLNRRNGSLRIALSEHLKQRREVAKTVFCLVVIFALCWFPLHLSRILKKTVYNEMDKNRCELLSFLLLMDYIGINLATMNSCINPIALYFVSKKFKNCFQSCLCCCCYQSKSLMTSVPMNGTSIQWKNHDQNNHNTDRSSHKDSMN
The experiment in a line: Antagonist activity against human ETA receptor using CHO cells. It counts as functional, cell-based.

Experiment [1] deals with T2, Endothelin receptor type B (Homo sapiens, UniProt P24530).
T2 sequence (P24530 whole entry): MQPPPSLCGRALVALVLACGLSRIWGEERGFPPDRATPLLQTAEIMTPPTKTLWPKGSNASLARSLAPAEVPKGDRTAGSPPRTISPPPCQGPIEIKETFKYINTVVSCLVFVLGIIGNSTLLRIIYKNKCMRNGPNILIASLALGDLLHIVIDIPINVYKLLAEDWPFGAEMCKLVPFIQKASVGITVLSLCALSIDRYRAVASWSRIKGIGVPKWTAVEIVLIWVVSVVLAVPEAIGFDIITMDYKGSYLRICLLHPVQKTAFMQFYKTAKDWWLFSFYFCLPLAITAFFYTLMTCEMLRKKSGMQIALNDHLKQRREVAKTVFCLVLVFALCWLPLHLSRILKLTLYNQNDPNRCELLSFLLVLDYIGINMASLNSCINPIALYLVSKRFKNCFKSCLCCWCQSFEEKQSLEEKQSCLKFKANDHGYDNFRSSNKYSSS
The experiment in a line: Antagonist activity against human Endothelin B receptor expressed in CHO cells. It counts as functional, cell-based.

As for `CCOc1ccc(-c2cc(C)nc(OC(C(=O)O)C(C)(c3ccccc3)c3ccccc3)n2)cc1` (configuration not stated), the results for the Ki (at Endothelin-1 receptor; in experiment [1]) were 2 nM and 344 nM, respectively.
